Assay results as given in patent publication US11065232B2, “Dihydrotetrabenazine for the treatment of anxiety and psychoses” (ADEPTIO PHARMACEUTICALS LIMITED, priority 2017, dated 2021).

Legend:
[1] = molecular target: 5-HT5A(h) (Homo sapiens, UniProt P47898); assay: Receptor protein binding studies, 5-HT5A
Source text: (§1) The four 3,11b trans-dihydrotetrabenazine isomers (+)-α, (−)-α, (+)-β and (−)-β were subjected to specific binding assays to test their ability to bind to the receptors and transporter proteins described below. The results are set out in Table 1

[2] = molecular target: T1, 5-HT1A(h) (agonist radioligand) (Homo sapiens, UniProt P08908); assay: Receptor protein binding studies, 5-HT1A
T1 sequence (P08908 1-422): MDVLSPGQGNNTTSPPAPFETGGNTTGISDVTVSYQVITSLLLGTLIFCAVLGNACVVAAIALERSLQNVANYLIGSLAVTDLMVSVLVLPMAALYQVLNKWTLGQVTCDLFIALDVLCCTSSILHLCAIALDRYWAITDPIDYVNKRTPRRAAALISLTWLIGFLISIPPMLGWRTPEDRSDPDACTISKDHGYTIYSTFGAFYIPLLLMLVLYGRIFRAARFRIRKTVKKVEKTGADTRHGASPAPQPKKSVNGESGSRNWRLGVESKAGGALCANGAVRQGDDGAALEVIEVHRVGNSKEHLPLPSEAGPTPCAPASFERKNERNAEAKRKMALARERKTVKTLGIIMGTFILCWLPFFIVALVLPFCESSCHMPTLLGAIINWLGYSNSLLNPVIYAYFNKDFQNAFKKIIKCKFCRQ
Source text: as §1

[3] = molecular target: D5 (h) (antagonist radioligand) (Homo sapiens, UniProt P21918); assay: Receptor protein binding studies, D5
Source text: as §1

[4] = molecular target: 5-HT2B (h) (agonist radioligand) (Homo sapiens, UniProt P41595); assay: Receptor protein binding studies, 5-HT2B
Source text: as §1

[5] = molecular target: T2, alpha 1B (h) (antagonist radioligand) (Homo sapiens, UniProt P35368); assay: Receptor protein binding studies, alpha 1B
T2 sequence (P35368 1-520): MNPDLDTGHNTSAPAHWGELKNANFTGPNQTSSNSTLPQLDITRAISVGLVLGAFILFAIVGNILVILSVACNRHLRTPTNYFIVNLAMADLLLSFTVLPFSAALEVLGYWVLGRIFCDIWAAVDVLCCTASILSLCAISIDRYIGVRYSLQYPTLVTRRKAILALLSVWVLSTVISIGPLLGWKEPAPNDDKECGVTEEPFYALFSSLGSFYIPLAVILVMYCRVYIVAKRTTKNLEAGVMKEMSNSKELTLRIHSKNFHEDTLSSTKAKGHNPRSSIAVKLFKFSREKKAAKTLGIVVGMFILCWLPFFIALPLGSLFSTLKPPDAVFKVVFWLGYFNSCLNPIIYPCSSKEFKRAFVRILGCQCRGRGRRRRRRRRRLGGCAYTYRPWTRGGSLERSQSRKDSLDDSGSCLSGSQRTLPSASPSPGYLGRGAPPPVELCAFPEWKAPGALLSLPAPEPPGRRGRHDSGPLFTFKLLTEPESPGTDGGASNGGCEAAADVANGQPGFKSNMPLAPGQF
Source text: as §1

[6] = molecular target: D1 (h) (antagonist radioligand) (Homo sapiens, UniProt P21728); assay: Receptor protein binding studies, D1
Source text: as §1

[7] = molecular target: T3, alpha 1A (h) (antagonist radioligand) (Homo sapiens, UniProt P35348); assay: Receptor protein binding studies, alpha 1A
T3 sequence (P35348 1-466): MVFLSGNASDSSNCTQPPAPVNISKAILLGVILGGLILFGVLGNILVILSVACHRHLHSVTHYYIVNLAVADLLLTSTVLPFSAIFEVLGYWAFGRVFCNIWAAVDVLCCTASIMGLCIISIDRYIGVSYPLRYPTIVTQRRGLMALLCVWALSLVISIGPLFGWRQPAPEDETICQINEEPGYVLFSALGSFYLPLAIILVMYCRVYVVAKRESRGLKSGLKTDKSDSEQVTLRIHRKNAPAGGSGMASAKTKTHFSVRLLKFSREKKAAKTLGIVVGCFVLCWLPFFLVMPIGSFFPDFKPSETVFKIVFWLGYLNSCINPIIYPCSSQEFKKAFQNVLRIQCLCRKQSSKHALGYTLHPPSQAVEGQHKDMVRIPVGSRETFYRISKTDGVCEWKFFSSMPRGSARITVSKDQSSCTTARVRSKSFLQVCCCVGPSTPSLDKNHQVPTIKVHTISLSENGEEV
Source text: as §1

[8] = molecular target: 5-HT6 (h) (Homo sapiens, UniProt P50406); assay: Receptor protein binding studies, 5-HT6
Source text: as §1

[9] = molecular target: 5-HT4e (h) (antagonist radioligand) (Homo sapiens, UniProt Q13639); assay: Receptor protein binding studies, 5-HT4e
Source text: as §1

[10] = molecular target: Dopamine D2L (Homo sapiens, UniProt P14416); assay: Receptor protein binding studies, Dopamine D2L
Source text: as §1

[11] = molecular target: T4, alpha 2C (h) (antagonist radioligand) (Homo sapiens, UniProt P18825); assay: Receptor protein binding studies, alpha 2C
T4 sequence (P18825 1-462): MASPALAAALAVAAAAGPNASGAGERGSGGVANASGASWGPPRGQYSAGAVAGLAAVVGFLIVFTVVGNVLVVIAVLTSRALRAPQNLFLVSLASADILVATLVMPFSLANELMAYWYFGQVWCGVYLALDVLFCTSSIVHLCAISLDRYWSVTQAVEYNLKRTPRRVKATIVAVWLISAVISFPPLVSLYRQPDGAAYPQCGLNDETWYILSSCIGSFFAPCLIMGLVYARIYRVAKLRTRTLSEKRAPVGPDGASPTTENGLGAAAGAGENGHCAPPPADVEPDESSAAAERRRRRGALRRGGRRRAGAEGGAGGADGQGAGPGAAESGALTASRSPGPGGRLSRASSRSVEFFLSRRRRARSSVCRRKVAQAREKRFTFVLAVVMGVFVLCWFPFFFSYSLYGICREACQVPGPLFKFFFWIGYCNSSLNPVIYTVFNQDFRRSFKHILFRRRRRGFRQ
Source text: as §1

[12] = molecular target: mu (MOP) (h) (agonist radioligand) (Homo sapiens, UniProt P35372); assay: Receptor protein binding studies, mu (MOP)
Source text: as §1

mu (MOP) (h) (agonist radioligand), sequence (P35372 whole entry): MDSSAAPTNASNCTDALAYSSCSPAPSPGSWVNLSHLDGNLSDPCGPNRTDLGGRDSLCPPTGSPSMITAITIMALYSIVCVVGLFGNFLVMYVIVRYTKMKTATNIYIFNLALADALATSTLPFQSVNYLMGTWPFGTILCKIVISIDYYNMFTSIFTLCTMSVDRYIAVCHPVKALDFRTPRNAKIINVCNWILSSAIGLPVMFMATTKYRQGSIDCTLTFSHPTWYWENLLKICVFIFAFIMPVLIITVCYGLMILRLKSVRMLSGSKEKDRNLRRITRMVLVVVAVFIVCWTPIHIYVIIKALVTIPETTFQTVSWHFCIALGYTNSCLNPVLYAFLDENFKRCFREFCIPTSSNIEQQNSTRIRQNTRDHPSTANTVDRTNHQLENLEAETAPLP
Dopamine D2L, sequence (P14416 whole entry): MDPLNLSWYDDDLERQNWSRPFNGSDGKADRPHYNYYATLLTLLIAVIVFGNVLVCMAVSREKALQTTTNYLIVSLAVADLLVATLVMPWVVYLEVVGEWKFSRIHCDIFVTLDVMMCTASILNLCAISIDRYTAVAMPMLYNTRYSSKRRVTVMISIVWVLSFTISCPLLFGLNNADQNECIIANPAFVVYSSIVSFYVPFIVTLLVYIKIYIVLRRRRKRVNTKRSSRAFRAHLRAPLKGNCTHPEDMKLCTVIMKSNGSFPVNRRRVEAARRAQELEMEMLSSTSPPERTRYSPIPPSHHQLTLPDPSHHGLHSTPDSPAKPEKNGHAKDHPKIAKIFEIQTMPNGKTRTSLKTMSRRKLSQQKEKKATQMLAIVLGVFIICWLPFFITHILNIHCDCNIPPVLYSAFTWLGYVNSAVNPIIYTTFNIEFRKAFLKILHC
D5 (h) (antagonist radioligand), sequence (P21918 whole entry): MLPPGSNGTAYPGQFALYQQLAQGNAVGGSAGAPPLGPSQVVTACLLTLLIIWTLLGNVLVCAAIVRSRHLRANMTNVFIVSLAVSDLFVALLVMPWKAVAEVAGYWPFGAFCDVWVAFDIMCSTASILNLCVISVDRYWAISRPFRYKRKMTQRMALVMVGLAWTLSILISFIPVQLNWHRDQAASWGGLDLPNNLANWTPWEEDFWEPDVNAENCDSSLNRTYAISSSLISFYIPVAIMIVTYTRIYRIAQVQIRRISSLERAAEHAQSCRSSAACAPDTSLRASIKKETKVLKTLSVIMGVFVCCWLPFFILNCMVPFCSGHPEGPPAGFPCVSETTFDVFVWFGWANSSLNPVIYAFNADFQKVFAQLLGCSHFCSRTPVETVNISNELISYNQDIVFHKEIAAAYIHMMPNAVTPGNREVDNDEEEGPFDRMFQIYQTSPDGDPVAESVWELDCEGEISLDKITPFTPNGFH
5-HT2B (h) (agonist radioligand), sequence (P41595 whole entry): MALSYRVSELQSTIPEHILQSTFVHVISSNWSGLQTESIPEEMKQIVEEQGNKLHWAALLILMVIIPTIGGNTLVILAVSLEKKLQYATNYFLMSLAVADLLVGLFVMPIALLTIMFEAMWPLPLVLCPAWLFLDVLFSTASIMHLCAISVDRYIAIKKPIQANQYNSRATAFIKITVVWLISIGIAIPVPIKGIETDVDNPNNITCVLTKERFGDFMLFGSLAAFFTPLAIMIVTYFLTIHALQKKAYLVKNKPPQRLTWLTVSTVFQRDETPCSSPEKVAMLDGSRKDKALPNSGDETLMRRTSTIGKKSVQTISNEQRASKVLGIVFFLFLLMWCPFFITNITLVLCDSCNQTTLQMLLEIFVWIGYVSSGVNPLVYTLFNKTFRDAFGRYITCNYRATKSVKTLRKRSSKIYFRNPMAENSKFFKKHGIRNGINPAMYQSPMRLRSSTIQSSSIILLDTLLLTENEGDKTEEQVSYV
5-HT5A(h), sequence (P47898 whole entry): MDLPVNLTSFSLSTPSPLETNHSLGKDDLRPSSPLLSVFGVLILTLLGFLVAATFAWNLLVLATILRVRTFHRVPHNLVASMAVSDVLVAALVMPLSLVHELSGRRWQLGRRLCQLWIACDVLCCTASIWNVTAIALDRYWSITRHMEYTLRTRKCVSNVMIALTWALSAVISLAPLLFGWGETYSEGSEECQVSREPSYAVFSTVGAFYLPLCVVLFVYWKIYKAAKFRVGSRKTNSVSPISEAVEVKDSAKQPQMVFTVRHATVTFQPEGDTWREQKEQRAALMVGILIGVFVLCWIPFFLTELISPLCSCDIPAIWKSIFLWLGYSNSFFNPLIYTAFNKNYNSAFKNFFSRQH
D1 (h) (antagonist radioligand), sequence (P21728 whole entry): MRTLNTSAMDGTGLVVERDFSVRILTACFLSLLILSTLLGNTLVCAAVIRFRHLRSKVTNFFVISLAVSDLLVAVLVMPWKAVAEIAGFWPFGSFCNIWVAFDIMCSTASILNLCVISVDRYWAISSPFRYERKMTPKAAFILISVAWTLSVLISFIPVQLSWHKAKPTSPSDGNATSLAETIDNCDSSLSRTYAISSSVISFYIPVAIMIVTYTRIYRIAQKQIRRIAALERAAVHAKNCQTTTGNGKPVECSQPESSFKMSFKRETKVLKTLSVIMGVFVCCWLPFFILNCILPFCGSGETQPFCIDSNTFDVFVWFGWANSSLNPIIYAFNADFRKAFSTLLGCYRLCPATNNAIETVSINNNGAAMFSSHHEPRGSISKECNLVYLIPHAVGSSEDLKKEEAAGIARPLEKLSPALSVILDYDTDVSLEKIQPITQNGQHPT
5-HT6 (h), sequence (P50406 whole entry): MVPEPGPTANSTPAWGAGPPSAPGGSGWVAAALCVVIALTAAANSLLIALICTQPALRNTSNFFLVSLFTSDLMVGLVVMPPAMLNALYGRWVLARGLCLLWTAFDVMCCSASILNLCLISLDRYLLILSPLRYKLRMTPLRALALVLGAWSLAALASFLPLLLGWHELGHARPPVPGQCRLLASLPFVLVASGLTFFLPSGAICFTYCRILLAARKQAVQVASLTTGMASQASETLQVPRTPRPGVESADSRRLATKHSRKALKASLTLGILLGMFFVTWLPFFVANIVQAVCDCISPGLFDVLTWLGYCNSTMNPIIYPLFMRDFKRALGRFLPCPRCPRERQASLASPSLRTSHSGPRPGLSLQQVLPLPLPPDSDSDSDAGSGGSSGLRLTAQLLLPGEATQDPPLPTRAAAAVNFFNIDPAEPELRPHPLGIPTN
5-HT4e (h) (antagonist radioligand), sequence (Q13639 1-378 isoform Q13639-5): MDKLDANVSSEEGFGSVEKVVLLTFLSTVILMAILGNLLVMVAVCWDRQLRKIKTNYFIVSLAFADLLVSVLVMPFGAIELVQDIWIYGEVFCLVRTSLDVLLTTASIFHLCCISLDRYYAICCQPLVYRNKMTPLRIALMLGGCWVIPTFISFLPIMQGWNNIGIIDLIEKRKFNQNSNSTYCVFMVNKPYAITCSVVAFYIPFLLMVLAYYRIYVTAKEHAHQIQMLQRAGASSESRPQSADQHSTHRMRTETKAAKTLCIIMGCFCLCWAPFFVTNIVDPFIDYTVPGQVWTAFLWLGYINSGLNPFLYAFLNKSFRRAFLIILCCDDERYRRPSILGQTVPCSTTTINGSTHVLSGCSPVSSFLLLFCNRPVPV

| Substance | % Inhibition of specific binding ([1]; CONC 1.0E−05 (unit not given)) [%] | % Inhibition of specific binding ([1]; CONC 1.0E−06 (unit not given)) [%] | % Inhibition of specific binding ([2]; CONC 1.0E−05 (unit not given)) [%] | % Inhibition of specific binding ([2]; CONC 1.0E−06 (unit not given)) [%] | % Inhibition of specific binding ([3]; CONC 1.0E−05 (unit not given)) [%] | % Inhibition of specific binding ([3]; CONC 1.0E−06 (unit not given)) [%] | % Inhibition of specific binding ([4]; CONC 1.0E−05 (unit not given)) [%] | % Inhibition of specific binding ([4]; CONC 1.0E−06 (unit not given)) [%] | % Inhibition of specific binding ([5]; CONC 1.0E−05 (unit not given)) [%] | % Inhibition of specific binding ([5]; CONC 1.0E−06 (unit not given)) [%] | % Inhibition of specific binding ([6]; CONC 1.0E−05 (unit not given)) [%] | % Inhibition of specific binding ([6]; CONC 1.0E−06 (unit not given)) [%] | % Inhibition of specific binding ([7]; CONC 1.0E−05 (unit not given)) [%] | % Inhibition of specific binding ([7]; CONC 1.0E−06 (unit not given)) [%] | % Inhibition of specific binding ([8]; CONC 1.0E−05 (unit not given)) [%] | % Inhibition of specific binding ([8]; CONC 1.0E−06 (unit not given)) [%] | % Inhibition of specific binding ([9]; CONC 1.0E−05 (unit not given)) [%] | % Inhibition of specific binding ([9]; CONC 1.0E−06 (unit not given)) [%] | % Inhibition of specific binding ([10]; CONC 1.0E−05 (unit not given)) [%] | % Inhibition of specific binding ([10]; CONC 1.0E−06 (unit not given)) [%] | also measured |
| --- | --- | --- | --- | --- | --- | --- | --- | --- | --- | --- | --- | --- | --- | --- | --- | --- | --- | --- | --- | --- | --- |
| (+)-α-dihydrotetrabenazine [(+)-Alpha] | −2 | −26 | 83 | 38 | −8 | −7 | 0 | −4 | 23 | −4 | −2 | 0 | 12 | 7 | 35 | −1 | 40 | 2 | 14 | 10 | % Inhibition of specific binding ([11]; CONC 1.0E−05 (unit not given)): 5%; % Inhibition of specific binding ([11]; CONC 1.0E−06 (unit not given)): 4%; % Inhibition of specific binding ([12]; CONC 1.0E−05 (unit not given)): 5%; % Inhibition of specific binding ([12]; CONC 1.0E−06 (unit not given)): 0% |
| (−)-α-dihydrotetrabenazine [(−)-Alpha] | −6 | −24 | 96 | 80 | 23 | −3 | 92 | 55 | 14 | 9 | 45 | 5 | 6 | 1 | 29 | 6 | 26 | 4 | 68 | 27 | % Inhibition of specific binding ([11]; CONC 1.0E−05 (unit not given)): 69%; % Inhibition of specific binding ([11]; CONC 1.0E−06 (unit not given)): 17%; % Inhibition of specific binding ([12]; CONC 1.0E−05 (unit not given)): 2%; % Inhibition of specific binding ([12]; CONC 1.0E−06 (unit not given)): 11% |
| (+)-β-dihydrotetrabenazine [(+)-Beta] | −13 | −23 | 64 | 20 | −5 | −8 | −7 | −2 | 1 | 3 | 8 | 0 | 33 | 2 | 6 | 15 | 19 | −4 | 18 | 1 | % Inhibition of specific binding ([11]; CONC 1.0E−05 (unit not given)): 12%; % Inhibition of specific binding ([11]; CONC 1.0E−06 (unit not given)): −7%; % Inhibition of specific binding ([12]; CONC 1.0E−05 (unit not given)): 2%; % Inhibition of specific binding ([12]; CONC 1.0E−06 (unit not given)): 7% |
